For data set [1], the system named is Escherichia coli ATCC 25922. The conditions noted are these: ATCC 25922. The essentials:
(§1)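 Standardized inocula (0.5 McFarland in saline, then diluted in MHII broth to approximately 5×10^5 CFU/mL) were exposed to two-fold dilution series of each peptide in the presence of polysorbate 80 (0.002% final).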

Data set [2] concerns Escherichia coli MCR-1 Af 45. Summed up: as §1
The subject of data set [3] is Klebsiella pneumoniae SSI3010. The conditions noted are these: SSI3010. The essentials:
as §1

For data set [4], the system named is human red blood cells (hRBC). The data set can be described thus: Hemolysis of human red blood cells. The data set is classed as cell-based. The conditions noted are these: red cells of human, 1 h. Summed up:
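Percent hemolysis is OD540 of peptide-treated supernatant relative to water-lysed cells. Each peptide was tested at 200 μg/mL against 20% (v/v) washed human erythrocytes. Incubation was 1 h at 37 °C, 300 rpm.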

[5] abbreviates: Mueller-Hinton broth II, 18-20 hours at 35° C.

Where two headings read alike, the source gives them in different places. Peptide text beside a SMILES is read from it.

The values below come from patent US20230295234A1, “ANTIMICROBIAL PEPTIDOMIMETICS” (SPEXIS AG, priority 2020, published 2023).

As for `CC[C@H](C)[C@H](NC(=O)[C@@H]1C[C@@H](O)CN1C(=O)[C@@H](N)C(C)C)C(=O)N[C@H](C(=O)N[C@@H](Cc1ccc(O)cc1)C(=O)N[C@@H]1C(=O)N[C@@H]([C@@H](C)O)C(=O)N[C@@H](CCCNC(=N)N)C(=O)N[C@@H](CCN)C(=O)N[C@@H]([C@@H](C)O)C(=O)N[C@H](CCN)C(=O)N[C@@H](CCCCN)C(=O)N[C@H](C(=O)N[C@@H](CCN)C(=O)N[C@@H](CCCNC(=N)N)C(=O)N[C@@H](Cc2ccc(O)cc2)C(=O)O)CSSC1(C)C)[C@@H](C)O` [Example 165] (HELM PEPTIDE1{V.[Hyp].I.T.Y.[Pen].T.R.[Dab].T.[NCC[C@@H](N[*:1])C(=O)[*:2]].K.C.[Dab].R.Y}$PEPTIDE1,PEPTIDE1,6:R3-13:R3$$$V2.0), the “Escherichia coli ATCC 25922 MIC” value in data set [1] worked out at 0.125 µg/mL. Besides, the “Escherichia coli MCR-1 Af 45 MIC” value in data set [2] (setting [5]) was 0.125 µg/mL. The “Klebsiella pneumoniae SSI3010 MIC” value in data set [3] was 0.5 µg/mL. The “Hemolysis at 0.2 g/L” value in data set [4] is on record as 0%.
`CC[C@H](C)[C@H](NC(=O)[C@@H]1C[C@@H](O)CN1C(=O)[C@@H](N)C(C)C)C(=O)N[C@H](C(=O)N[C@@H](Cc1ccc(O)cc1)C(=O)N[C@@H]1C(=O)N[C@@H](CCCCN)C(=O)N[C@@H](CCCNC(=N)N)C(=O)N[C@@H](CCN)C(=O)N[C@@H]([C@@H](C)O)C(=O)N[C@H](CCN)C(=O)N[C@@H](CCCCN)C(=O)N[C@H](C(=O)N[C@@H](CCN)C(=O)N[C@@H](CCCNC(=N)N)C(=O)N[C@@H](Cc2ccc(O)cc2)C(=O)O)CSSC1(C)C)[C@@H](C)O` [Example 166] (HELM PEPTIDE1{V.[Hyp].I.T.Y.[Pen].K.R.[Dab].T.[NCC[C@@H](N[*:1])C(=O)[*:2]].K.C.[Dab].R.Y}$PEPTIDE1,PEPTIDE1,6:R3-13:R3$$$V2.0): the “Escherichia coli ATCC 25922 MIC” value in data set [1] came out at 0.25 µg/mL. For the same compound, in data set [2] (setting [5]), the “Escherichia coli MCR-1 Af 45 MIC” value was 0.125 µg/mL. In addition, in data set [3], the “Klebsiella pneumoniae SSI3010 MIC” value worked out at 0.5 µg/mL. Moreover, in data set [4], the “Hemolysis at 0.2 g/L” value worked out at 0%.
On the same counts, the results for `CC[C@H](C)[C@H](NC(=O)[C@@H]1C[C@@H](O)CN1C(=O)[C@@H](N)C(C)C)C(=O)N[C@H](C(=O)N[C@@H](Cc1ccc(O)cc1)C(=O)N[C@@H]1C(=O)N[C@@H](CC(N)=O)C(=O)N[C@@H](CCCNC(=N)N)C(=O)N[C@@H](CCCCN)C(=O)N[C@@H]([C@@H](C)O)C(=O)N[C@H](CCN)C(=O)N[C@@H](CCCCN)C(=O)N[C@H](C(=O)N[C@@H](CCN)C(=O)N[C@@H](CCCNC(=N)N)C(=O)N[C@@H](Cc2ccc(O)cc2)C(=O)O)CSSC1(C)C)[C@@H](C)O` [Example 167] (HELM PEPTIDE1{V.[Hyp].I.T.Y.[Pen].N.R.K.T.[NCC[C@@H](N[*:1])C(=O)[*:2]].K.C.[Dab].R.Y}$PEPTIDE1,PEPTIDE1,6:R3-13:R3$$$V2.0) are 0.25 µg/mL, 0.125 µg/mL, 0.5 µg/mL and 0%.
As for `CC[C@H](C)[C@H](NC(=O)[C@@H]1C[C@@H](O)CN1C(=O)[C@@H](N)C(C)C)C(=O)N[C@H](C(=O)N[C@@H](Cc1ccc(O)cc1)C(=O)N[C@@H]1C(=O)N[C@@H](CC(N)=O)C(=O)N[C@@H](CCCNC(=N)N)C(=O)N[C@@H](CCCNC(=N)N)C(=O)N[C@@H]([C@@H](C)O)C(=O)N[C@H](CCN)C(=O)N[C@@H](CCCCN)C(=O)N[C@H](C(=O)N[C@@H](CCN)C(=O)N[C@@H](CCCNC(=N)N)C(=O)N[C@@H](Cc2ccc(O)cc2)C(=O)O)CSSC1(C)C)[C@@H](C)O` [Example 168] (HELM PEPTIDE1{V.[Hyp].I.T.Y.[Pen].N.R.R.T.[NCC[C@@H](N[*:1])C(=O)[*:2]].K.C.[Dab].R.Y}$PEPTIDE1,PEPTIDE1,6:R3-13:R3$$$V2.0), the “Escherichia coli ATCC 25922 MIC” value in data set [1] was 0.125 µg/mL. Besides, the “Escherichia coli MCR-1 Af 45 MIC” value in data set [2] (setting [5]) was determined as 0.5 µg/mL. Further, the “Klebsiella pneumoniae SSI3010 MIC” value in data set [3] came out at 0.25 µg/mL. The “Hemolysis at 0.2 g/L” value in data set [4] came out at 0%.
On the same counts, the results for `CC[C@H](C)[C@@H]1NC(=O)[C@@H](CCN)NC(=O)[C@H]([C@@H](C)O)NC(=O)[C@H](CCN)NC(=O)[C@H](CCCNC(=N)N)NC(=O)[C@H](CC(N)=O)NC(=O)[C@@H](NC(=O)[C@H](Cc2ccc(O)cc2)NC(=O)[C@@H](NC(=O)[C@@H](NC(=O)[C@@H]2C[C@@H](O)CN2C(=O)[C@@H](N)C(C)C)[C@@H](C)CC)[C@@H](C)O)C(C)(C)SSC[C@@H](C(=O)N[C@@H](CCN)C(=O)N[C@@H](CCCNC(=N)N)C(=O)N[C@@H](Cc2ccc(O)cc2)C(=O)O)NC1=O` [Example 169] (HELM PEPTIDE1{V.[Hyp].I.T.Y.[Pen].N.R.[Dab].T.[NCC[C@@H](N[*:1])C(=O)[*:2]].I.C.[Dab].R.Y}$PEPTIDE1,PEPTIDE1,6:R3-13:R3$$$V2.0) are 0.5 µg/mL, 0.25 µg/mL, 0.5 µg/mL and 0%.
Regarding `CC[C@H](C)[C@H](NC(=O)[C@@H]1C[C@@H](O)CN1C(=O)[C@@H](N)C(C)C)C(=O)N[C@H](C(=O)N[C@@H](Cc1ccc(O)cc1)C(=O)N[C@@H]1C(=O)N[C@@H](CC(N)=O)C(=O)N[C@@H](CCCNC(=N)N)C(=O)N[C@@H](CCN)C(=O)N[C@@H]([C@@H](C)O)C(=O)N[C@H](CCN)C(=O)N[C@@H](CO)C(=O)N[C@H](C(=O)N[C@@H](CCN)C(=O)N[C@@H](CCCNC(=N)N)C(=O)N[C@@H](Cc2ccc(O)cc2)C(=O)O)CSSC1(C)C)[C@@H](C)O` [Example 170] (HELM PEPTIDE1{V.[Hyp].I.T.Y.[Pen].N.R.[Dab].T.[NCC[C@@H](N[*:1])C(=O)[*:2]].S.C.[Dab].R.Y}$PEPTIDE1,PEPTIDE1,6:R3-13:R3$$$V2.0), the “Escherichia coli ATCC 25922 MIC” value in data set [1] worked out at 0.25 µg/mL. Besides, in data set [2] (setting [5]), the “Escherichia coli MCR-1 Af 45 MIC” value amounted to 0.5 µg/mL. In data set [3], the “Klebsiella pneumoniae SSI3010 MIC” value amounted to 0.5 µg/mL. Further, the “Hemolysis at 0.2 g/L” value in data set [4] came out at 0%.
With `CC[C@H](C)[C@H](NC(=O)[C@@H]1C[C@@H](O)CN1C(=O)[C@@H](N)C(C)C)C(=O)N[C@H](C(=O)N[C@@H](Cc1ccc(O)cc1)C(=O)N[C@@H]1C(=O)N[C@@H](CC(N)=O)C(=O)N[C@@H](CCCNC(=N)N)C(=O)N[C@@H](CCN)C(=O)N[C@@H]([C@@H](C)O)C(=O)N[C@H](CCN)C(=O)N[C@@H](Cc2ccc(O)cc2)C(=O)N[C@H](C(=O)N[C@@H](CCN)C(=O)N[C@@H](CCCNC(=N)N)C(=O)N[C@@H](Cc2ccc(O)cc2)C(=O)O)CSSC1(C)C)[C@@H](C)O` [Example 171] (HELM PEPTIDE1{V.[Hyp].I.T.Y.[Pen].N.R.[Dab].T.[NCC[C@@H](N[*:1])C(=O)[*:2]].Y.C.[Dab].R.Y}$PEPTIDE1,PEPTIDE1,6:R3-13:R3$$$V2.0), in data set [1], the “Escherichia coli ATCC 25922 MIC” value worked out at 0.5 µg/mL. In addition, the “Escherichia coli MCR-1 Af 45 MIC” value in data set [2] (setting [5]) was found to be 0.5 µg/mL. Moreover, in data set [3], the “Klebsiella pneumoniae SSI3010 MIC” value amounted to 0.25 µg/mL. Besides, the “Hemolysis at 0.2 g/L” value in data set [4] is recorded as 0%.
Take `CC[C@H](C)[C@H](NC(=O)[C@@H]1C[C@@H](O)CN1C(=O)[C@@H](N)C(C)C)C(=O)N[C@H](C(=O)N[C@@H](Cc1ccc(O)cc1)C(=O)N[C@@H]1C(=O)N[C@@H](CC(N)=O)C(=O)N[C@@H](CCCNC(=N)N)C(=O)N[C@@H](CCN)C(=O)N[C@@H]([C@@H](C)O)C(=O)N[C@H](CCN)C(=O)N[C@@H](Cc2c[nH]c3ccccc23)C(=O)N[C@H](C(=O)N[C@@H](CCN)C(=O)N[C@@H](CCCNC(=N)N)C(=O)N[C@@H](Cc2ccc(O)cc2)C(=O)O)CSSC1(C)C)[C@@H](C)O` [Example 172] (HELM PEPTIDE1{V.[Hyp].I.T.Y.[Pen].N.R.[Dab].T.[NCC[C@@H](N[*:1])C(=O)[*:2]].W.C.[Dab].R.Y}$PEPTIDE1,PEPTIDE1,6:R3-13:R3$$$V2.0): the “Escherichia coli ATCC 25922 MIC” value in data set [1] came to 0.5 µg/mL. In data set [2] (setting [5]), the “Escherichia coli MCR-1 Af 45 MIC” value came out at 0.5 µg/mL. Also, in data set [3], the “Klebsiella pneumoniae SSI3010 MIC” value was 0.5 µg/mL. Moreover, the “Hemolysis at 0.2 g/L” value in data set [4] is on record as 0%.
`CC[C@H](C)[C@H](NC(=O)[C@@H]1C[C@@H](O)CN1C(=O)[C@@H](N)C(C)C)C(=O)N[C@H](C(=O)N[C@@H](Cc1ccc(O)cc1)C(=O)N[C@@H]1C(=O)N[C@@H](CC(N)=O)C(=O)N[C@@H](CCCNC(=N)N)C(=O)N[C@@H](CCN)C(=O)N[C@@H]([C@@H](C)O)C(=O)N[C@H](CCN)C(=O)N[C@@H](CC(N)=O)C(=O)N[C@H](C(=O)N[C@@H](CCN)C(=O)N[C@@H](CCCNC(=N)N)C(=O)N[C@@H](Cc2ccc(O)cc2)C(=O)O)CSSC1(C)C)[C@@H](C)O` [Example 173] (HELM PEPTIDE1{V.[Hyp].I.T.Y.[Pen].N.R.[Dab].T.[NCC[C@@H](N[*:1])C(=O)[*:2]].N.C.[Dab].R.Y}$PEPTIDE1,PEPTIDE1,6:R3-13:R3$$$V2.0; N-terminus and C-terminus assumed): the “Escherichia coli ATCC 25922 MIC” value in data set [1] is 0.25 µg/mL. Also, the “Escherichia coli MCR-1 Af 45 MIC” value in data set [2] (MCR-1 Af 45) turned out to be 0.25 µg/mL. In addition, the “Klebsiella pneumoniae SSI3010 MIC” value in data set [3] amounted to 0.5 µg/mL. In addition, in data set [4], the “Hemolysis at 0.2 g/L” value turned out to be 0%.
For the compound `CC[C@H](C)[C@H](NC(=O)[C@@H]1C[C@@H](O)CN1C(=O)[C@@H](N)C(C)C)C(=O)N[C@H](C(=O)N[C@@H](Cc1ccc(O)cc1)C(=O)N[C@@H]1C(=O)N[C@@H](CC(N)=O)C(=O)N[C@@H](CCCNC(=N)N)C(=O)N[C@@H](CCN)C(=O)N[C@@H]([C@@H](C)O)C(=O)N[C@H](CCN)C(=O)N[C@@H](CCN)C(=O)N[C@H](C(=O)N[C@@H](CCN)C(=O)N[C@@H](CCCNC(=N)N)C(=O)N[C@@H](Cc2ccc(O)cc2)C(=O)O)CSSC1(C)C)[C@@H](C)O` [Example 174] (HELM PEPTIDE1{V.[Hyp].I.T.Y.[Pen].N.R.[Dab].T.[NCC[C@@H](N[*:1])C(=O)[*:2]].[Dab].C.[Dab].R.Y}$PEPTIDE1,PEPTIDE1,6:R3-13:R3$$$V2.0), the “Escherichia coli ATCC 25922 MIC” value in data set [1] is 0.125 µg/mL. The “Escherichia coli MCR-1 Af 45 MIC” value in data set [2] (setting [5]) worked out at 0.0625 µg/mL. Moreover, in data set [3], the “Klebsiella pneumoniae SSI3010 MIC” value is 0.25 µg/mL. Moreover, the “Hemolysis at 0.2 g/L” value in data set [4] is 0%.
